Each molecule was assayed against KRasG12C (M1-K169, biotinylated on the N-terminus) (Homo sapiens (Human), UniProt P01116, G12C) (assay: Covalent competition assay: scintillation proximity assay (SPA) quantifying covalent modification of KRASG12C). Settings: competition with radiolabeled covalent probe (Compound B/Compound A), 2 hours incubation, 10 nM KRasG12C.
Type: binding
In short: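 Scintillation proximity readout after streptavidin bead capture (30 min) of biotinylated KRasG12C(M1-K169):GDP, 10 nM final, which was covalently labelled over 2 h by 25 nM radio-probe plus 475 nM cold probe unless blocked by compound.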
With `C=CC(=O)N1CC2(CC(n3nc(N4CCOCC4(C)C)c(-c4c(Cl)c(C)cc5[nH]ncc45)c3C)C2)C1` (single isomer, unassigned) [Example 22a, 1-(6-(4-(5-chloro-6-methyl-1H-indazol-4-yl)-3-(3,3-dimethylmorpholino)-5-methyl-1H-pyrazol-1-yl)-2-azaspiro[3.3]heptan-2-yl)prop-2-en-1-one] the IC50 was greater than 50000 nM. `C=CC(=O)N1CC2(CC(n3nc(N4CCN(C5COC5)C5COCC54)c(-c4c(Cl)c(C)cc5[nH]ncc45)c3C)C2)C1` (stereo not drawn) [Example 136b, 1-(6-(4-(5-chloro-6-methyl-1H-indazol-4-yl)-5-methyl-3-((4aS*,7aS*)-4-(oxetan-3-yl)hexahydrofuro[3,4-b]pyrazin-1(2H)-yl)-1H-pyrazol-1-yl)-2-azaspiro[3.3]heptan-2-yl)prop-2-en-1-one] showed an IC50 greater than 5000 nM. `C=CC(=O)N1CC2(CC(n3nc(N4CC[C@@H](CN5CC6OCCN(C)C6C5)CC4(C)C)c(-c4c(Cl)c(Cl)cc5[nH]ncc45)c3C)C2)C1` (single isomer, unassigned) [Example 260a, 1-(6-(4-(5,6-dichloro-1H-indazol-4-yl)-3-((R)-2,2-dimethyl-4-(((4aR*,7aS*)-4-methylhexahydropyrrolo[3,4-b][1,4]oxazin-6(2H)-yl)methyl)piperidin-1-yl)-5-methyl-1H-pyrazol-1-yl)-2-azaspiro[3.3]heptan-2-yl)prop-2-en-1-one] gave an IC50 greater than 5000 nM. For `C=CC(=O)N1CC2(CC(n3nc(N4CCC(O)CC4(C)C)c(-c4c(Cl)c(C)cc5[nH]ncc45)c3C)C2)C1` (single isomer, unassigned) [Example 29b, 1-(6-(4-(5-chloro-6-methyl-1H-indazol-4-yl)-3-(4-hydroxy-2,2-dimethylpiperidin-1-yl)-5-methyl-1H-pyrazol-1-yl)-2-azaspiro[3.3]heptan-2-yl)prop-2-en-1-one], the IC50 was 32 nM. Work on `C=CC(=O)N1CC2(CC(n3nc(N4CC[C@@H](CN5CC6(CCOC6)C5)CC4(C)C)c(-c4c(Cl)c(Cl)cc5[nH]ncc45)c3C)C2)C1` (single isomer, unassigned) [Example 316b] yielded an IC50 of 9 nM. Molecule `C=CC(=O)N1CC2(CC(n3nc(N4CCN(C5CCOCC5)C[C@]4(C)COC)c(-c4c(Cl)c(C)cc5[nH]ncc45)c3C)C2)C1` (single isomer, unassigned) [Example 149b] has an IC50 of 9 nM. In the case of `C=CC(=O)N1CC2(CC(n3nc(N4CC[C@@H](CN5CCC6COCC65)CC4(C)C)c(-c4c(C)c(Cl)cc5[nH]ncc45)c3C)C2)C1` (single isomer, unassigned) [Example 306b, 1-(6-(4-(6-chloro-5-methyl-1H-indazol-4-yl)-3-((R)-4-(((3aR*,6aR*)-hexahydro-1H-furo[3,4-b]pyrrol-1-yl)methyl)-2,2-dimethylpiperidin-1-yl)-5-methyl-1H-pyrazol-1-yl)-2-azaspiro[3.3]heptan-2-yl)prop-2-en-1-one], the IC50 is reported as 5 nM. `C=CC(=O)N1CC2(CC(n3nc(N4CCN(C(=O)C5CC5)CC4(C)C)c(-c4c(Cl)c(C)cc5[nH]ncc45)c3C)C2)C1` (single isomer, unassigned) [Example 127b, 1-(6-(4-(5-chloro-6-methyl-1H-indazol-4-yl)-3-(4-(cyclopropanecarbonyl)-2,2-dimethylpiperazin-1-yl)-5-methyl-1H-pyrazol-1-yl)-2-azaspiro[3.3]heptan-2-yl)prop-2-en-1-one] gave an IC50 of 20 nM. Molecule `C=CC(=O)N1CC2(CC(n3nc(N4CCN(C5(C)COC5)CC45CCC5)c(-c4c(Cl)c(C)cc5[nH]ncc45)c3C)C2)C1` (single isomer, unassigned) [Example 191b, 1-(6-(4-(5-Chloro-6-methyl-1H-indazol-4-yl)-5-methyl-3-(8-(3-methyloxetan-3-yl)-5,8-diazaspiro[3.5]nonan-5-yl)-1H-pyrazol-1-yl)-2-azaspiro[3.3]heptan-2-yl)prop-2-en-1-one] has an IC50 of 14 nM. `C=CC(=O)N1CC2(CC(n3nc(N4CC[C@H](N(C)C(C)=O)CC4(C)C)c(-c4c(Cl)c(C)cc5[nH]ncc45)c3C)C2)C1` (single isomer, unassigned) [Example 70b] was tested, and the IC50 was 1000 nM. With `C=CC(=O)N1CC2(CC(n3nc(N4C5CCC4CN(C(C)=O)C5)c(-c4c(Cl)c(C)cc5[nH]ncc45)c3C)C2)C1` (single isomer, unassigned) [Example 57b, 1-(6-(3-(3-acetyl-3,8-diazabicyclo[3.2.1]octan-8-yl)-4-(5-chloro-6-methyl-1H-indazol-4-yl)-5-methyl-1H-pyrazol-1-yl)-2-azaspiro[3.3]heptan-2-yl)prop-2-en-1-one] the IC50 was 216 nM. `C=CC(=O)N1CC2(CC(n3nc(N4CC[C@@H](CN5CCC6(C5)CN(C(C)=O)C6)CC4(C)C)c(-c4c(Cl)c(Cl)cc5[nH]ncc45)c3C)C2)C1` (single isomer, unassigned) [Example 317b] was tested, and the IC50 was 7 nM. Molecule `C=CC(=O)N1CC2(CC(n3nc(N4CCC(N5C[C@@H]6C[C@H]5CO6)CC4(C)C)c(-c4c(Cl)c(C)cc5[nH]ncc45)c3C)C2)C1` (single isomer, unassigned) [Example 83b] has an IC50 of 26 nM. Molecule `C=CC(=O)N1CC2(CC(n3nc(N4CC[C@@H](CN5CC6C5CCN6C5COC5)CC4(C)C)c(-c4c(Cl)c(Cl)cc5[nH]ncc45)c3C)C2)C1` (single isomer, unassigned) [Example 277b, 1-(6-(4-(5,6-dichloro-1H-indazol-4-yl)-3-((R)-2,2-dimethyl-4-(((1S*,5S*)-2-(oxetan-3-yl)-2,6-diazabicyclo[3.2.0]heptan-6-yl)methyl)piperidin-1-yl)-5-methyl-1H-pyrazol-1-yl)-2-azaspiro[3.3]heptan-2-yl)prop-2-en-1-one] has an IC50 of less than 5 nM. In the case of `C=CC(=O)N1CC2(CCC(n3nc(N4CCN(C(C)=O)CC4)c(-c4c(Cl)ccc5[nH]ncc45)c3C)C2)C1` (single isomer, unassigned) [Example 53d, 1-(6-(3-(4-acetylpiperazin-1-yl)-4-(5-chloro-1H-indazol-4-yl)-5-methyl-1H-pyrazol-1-yl)-2-azaspiro[3.4]octan-2-yl)prop-2-en-1-one], the IC50 is reported as 9030 nM. Work on `C=CC(=O)N1CC2(CC(n3nc(N4CCC(CN5CCS(=O)(=O)CC5)CC4(C)C)c(-c4c(Cl)c(Cl)cc5[nH]ncc45)c3C)C2)C1` (single isomer, unassigned) [Example 235b, 1-(6-(4-(5,6-dichloro-1H-indazol-4-yl)-3-(4-((1,1-dioxidothiomorpholino)methyl)-2,2-dimethylpiperidin-1-yl)-5-methyl-1H-pyrazol-1-yl)-2-azaspiro[3.3]heptan-2-yl)prop-2-en-1-one] yielded an IC50 of 10 nM. For `C=CC(=O)N1CC2(CC(n3nc(N4CC[C@@H](CN5CCCN(C(C)=O)CC5)CC4(C)C)c(-c4c(Cl)c(Cl)cc5[nH]ncc45)c3C)C2)C1` (single isomer, unassigned) [Example 315a], the IC50 was 2000 nM. Molecule `C=CC(=O)N1CC2(CC(n3nc(N4CCN(C(C)=O)CC4)c(-c4c(Cl)ccc5[nH]ncc45)c3C)C2)C1C` (single isomer, unassigned) [Example 196a, 1-(6-(3-(4-acetylpiperazin-1-yl)-4-(5-chloro-1H-indazol-4-yl)-5-methyl-1H-pyrazol-1-yl)-1-methyl-2-azaspiro[3.3]heptan-2-yl)prop-2-en-1-one] has an IC50 greater than 50000 nM. Molecule `[2H]C([2H])([2H])c1c(-c2c(Cl)c(Cl)cc3[nH]ncc23)c(N2CC[C@@H](CN3CCOCC3)CC2(C)C)nn1C1CC2(C1)CN(C(=O)C=C)C2` (single isomer, unassigned) [Example 224b] has an IC50 of 12 nM.

Source: patent US20240317721A1, “PYRAZOLYL DERIVATIVES AS INHIBITORS OF THE KRAS MUTANT PROTEIN” (NOVARTIS AG, priority 2021, published 2024)
